Source: patent US20200131156A1, “ARYLSULFONYLPYROLECARBOXAMIDE DERIVATIVES AS Kv3 POTASSIUM CHANNEL ACTIVATORS” (H. Lundbeck A/S, priority 2018, published 2020)

Target: T1, hKv3.1b (Homo sapiens, UniProt P48547)
T1 construct: expressed in transfected cells
T1 sequence (P48547 1-585 isoform P48547-2): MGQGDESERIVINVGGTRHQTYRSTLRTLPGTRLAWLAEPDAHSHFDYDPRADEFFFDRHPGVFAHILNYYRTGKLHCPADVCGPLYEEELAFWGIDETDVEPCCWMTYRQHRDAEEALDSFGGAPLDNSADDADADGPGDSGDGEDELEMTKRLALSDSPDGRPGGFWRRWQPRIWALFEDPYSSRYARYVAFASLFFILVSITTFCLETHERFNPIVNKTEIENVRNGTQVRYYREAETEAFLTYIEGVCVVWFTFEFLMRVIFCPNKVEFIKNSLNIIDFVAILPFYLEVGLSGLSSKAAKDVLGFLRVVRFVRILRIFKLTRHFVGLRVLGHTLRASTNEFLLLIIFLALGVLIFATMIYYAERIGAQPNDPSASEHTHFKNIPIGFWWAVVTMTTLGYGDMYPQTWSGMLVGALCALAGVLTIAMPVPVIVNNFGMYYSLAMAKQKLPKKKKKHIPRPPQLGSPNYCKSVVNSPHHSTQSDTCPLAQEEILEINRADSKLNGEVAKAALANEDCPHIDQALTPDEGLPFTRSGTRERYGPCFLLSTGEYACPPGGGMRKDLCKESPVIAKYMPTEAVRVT
Assay: Automated patch clamp (QPatch-16x) on HEK-293 cells stably expressing hKv3.1b
Format: cell-based
Settings: for ECdelta5 mV: concentration needed to shift the activation threshold 5 mV; for Threshold Shift: maximum absolute hyperpolarizing shift of activation threshold at tested concentrations 0.37-30 μM
Description: HEK-293 cells stably expressing hKv3.1b were used for the experiments. Cells were cultured in DMEM medium supplemented with 10% Fetal Bovine Serum, 100 ug/mL Geneticidin and 100 u/mL Penicillin/Streptomycin (all from Gibco). Cells were grown to 80-90% confluency at 37° C. and 5% CO2. On the day of the experiment the cells were detached from the tissue culture flasks by Detachin, resuspended in serum free medium containing 25 mM HEPES and transferred to the cell hotel of the QPatch. The cells were used for experiments 0-5 hours after detachment.
Patch-clamp recordings were performed using the automated recording system QPatch-16x (Sophion Bioscience, Denmark). Cells were centrifuged, SFM removed and the cells were resuspended in extracellular buffer containing (in mM): 145 NaCl, 4 KCl, 1 MgCl2, 2 CaCl2, 10 HEPES and 10 glucose (added fresh on the day of experiment); pH 7.4 adjusted with NaOH, 305 mOsm adjusted with sucrose.
Single cell whole-cell recordings were carried out using an intracellular solution containing (in mM): 120 KCl, 32.25/10 KOH/EGTA, 5.374 CaCl2, 1.75 MgCl2, 10 HEPES, 4 Na2ATP (added fresh on the day), pH 7.2 adjusted with KOH, […] adjusted with sucrose. Cell membrane potentials were held at −80 mV and currents were evoked by voltage steps (200 ms duration) from −70 mV to +10 mV (in 10 mV increments). Vehicle (0.33% DMSO) or increasing concentration of compound (I) were applied and the voltage protocol was run 3 times (resulting in 3 min cpd incubation time). Five increasing concentrations of compound (I) were applied to each cell.
Leak subtraction protocol was applied at −33% of the sweep amplitude, and serial resistance values were constantly monitored.
Any cell where serial resistance exceeded 25 MOhm, membrane resistance less than 200 MOhm or current size at −10 mV less than 200 pA was eliminated from the subsequent analysis.
Data analysis was performed using Sophion's QPatch assay software in combination with Microsoft Excel™ (Redmond, Wash., USA). Current voltage relationships were plotted from the peak current at the individual voltage steps normalized to the vehicle addition at 10 mV. The voltage threshold for channel activation was defined as 5% activation of the peak current at 10 mV in presence of vehicle. The activity of the compounds was described as the ability to shift this current voltage relationship to more hyperpolarized potentials and is given as the maximum absolute shift possible at the tested concentrations (0.37, 1.11, 3.33, 10, 30 μM). Concentration response curves were plotted from the threshold shift at the individual concentrations and were fitted excel fit model 205 sigmoidal dose-response model (fit=A+((B−A)/1+((C/x)^D)))), where A is the minimum value, B the maximum value, C the EC50 value and D the slope of the curve. The concentration needed to shift the threshold 5 mV was readout from this curve (ECdelta5 mV).

Row | ECdelta5 mV [nM] | Threshold Shift [mV] | SMILES
1 | 1600 | 27 | Cc1ccc(S(=O)(=O)n2ccc(C(=O)NCc3ncc(C)cn3)c2)cc1 [Compound 1, N-[(5-methylpyrimidin-2-yl)methyl]-1-(p-tolylsulfonyl)pyrrole-3-carboxamide]
2 | 750 | 40 | Cc1ccc(S(=O)(=O)n2ccc(C(=O)NCc3cnc(C)nc3)c2)cc1 [Compound 2, N-[(2-methylpyrimidin-5-yl)methyl]-1-(p-tolylsulfonyl)pyrrole-3-carboxamide]
3 | 1100 | 25 | Cc1ccc(S(=O)(=O)n2ccc(C(=O)NCc3ccc(C)nn3)c2)cc1 [Compound 3, N-[(6-methylpyridazin-3-yl)methyl]-1-(p-tolylsulfonyl)pyrrole-3-carboxamide]
4 | 3100 | 17 | Cc1cnc(CNC(=O)c2ccn(S(=O)(=O)c3ccccc3F)c2)cn1 [Compound 4, 1-(2-fluorophenyl)sulfonyl-N-[(5-methylpyrazin-2-yl)methyl]pyrrole-3-carboxamide]
5 | 7800 | 10 | Cc1cnc(CNC(=O)c2ccn(S(=O)(=O)c3cccc(F)c3)c2)cn1 [Compound 5, 1-(3-fluorophenyl)sulfonyl-N-[(5-methylpyrazin-2-yl)methyl]pyrrole-3-carboxamide]
6 | 2300 | 24 | Cc1cnc(CNC(=O)c2ccn(S(=O)(=O)c3ccc(F)cc3)c2)cn1 [Compound 6, 1-(4-fluorophenyl)sulfonyl-N-[(5-methylpyrazin-2-yl)methyl]pyrrole-3-carboxamide]
7 | 1300 | 33 | COc1ccc(S(=O)(=O)n2ccc(C(=O)NCc3cnc(C)cn3)c2)cc1 [Compound 7, 1-(4-methoxyphenyl)sulfonyl-N-[(5-methylpyrazin-2-yl)methyl]pyrrole-3-carboxamide]
8 | 4000 | 12 | Cc1ccc(S(=O)(=O)n2cc(C)c(C(=O)NCc3cnc(C)cn3)c2)cc1 [Compound 8, 4-methyl-N-[(5-methylpyrazin-2-yl)methyl]-1-(p-tolylsulfonyl)pyrrole-3-carboxamide]
9 | 2400 | 15 | Cc1ccc(S(=O)(=O)n2ccc(C(=O)NCc3ccccn3)c2)cc1 [Compound 9, 1-(p-tolylsulfonyl)-N-(2-pyridylmethyl) pyrrole-3-carboxamide]
10 | 3600 | 10 | COc1cccnc1CNC(=O)c1ccn(S(=O)(=O)c2ccc(C)cc2)c1 [Compound 10, N-[(3-methoxy-2-pyridyl)methyl]-1-(p-tolylsulfonyl)pyrrole-3-carboxamide]
11 | 1300 | 16 | Cc1ccc(S(=O)(=O)n2ccc(C(=O)NCc3ncccc3F)c2)cc1 [Compound 11, N-[(3-fluoro-2-pyridyl)methyl]-1-(p-tolylsulfonyl) pyrrole-3-carboxamide]
12 | 1700 | 16 | Cc1ccc(S(=O)(=O)n2ccc(C(=O)NCc3cc(F)ccn3)c2)cc1 [Compound 12, N-[(4-fluoro-2-pyridyl)methyl]-1-(p-tolylsulfonyl) pyrrole-3-carboxamide]
13 | 1700 | 13 | Cc1ccc(S(=O)(=O)n2ccc(C(=O)NCc3ccc(F)cn3)c2)cc1 [Compound 13, N-[(5-fluoro-2-pyridyl)methyl]-1-(p-tolylsulfonyl) pyrrole-3-carboxamide]
14 | 1500 | 23 | Cc1ccc(S(=O)(=O)n2ccc(C(=O)NCc3cccnc3)c2)cc1 [Compound 14, 1-(p-tolylsulfonyl)-N-(3-pyridylmethyl) pyrrole-3-carboxamide]
15 | 1700 | 14 | Cc1ccc(S(=O)(=O)n2ccc(C(=O)NCc3cccc(C)n3)c2)cc1 [Compound 15, N-[(6-methyl-2-pyridyl)methyl]-1-(p-tolylsulfonyl)pyrrole-3-carboxamide]
16 | 3000 | 16 | Cc1ccc(S(=O)(=O)n2ccc(C(=O)NCc3cc(C)ccn3)c2)cc1 [Compound 16, N-[(4-methyl-2-pyridyl)methyl]-1-(p-tolylsulfonyl)pyrrole-3-carboxamide]
17 | 2300 | 16 | Cc1ccc(S(=O)(=O)n2ccc(C(=O)NCc3ncccc3C)c2)cc1 [Compound 17, N-[(3-methyl-2-pyridyl)methyl]-1-(p-tolylsulfonyl)pyrrole-3-carboxamide]
18 | 3500 | 10 | COc1ccc(CNC(=O)c2ccn(S(=O)(=O)c3ccc(C)cc3)c2)nc1 [Compound 18, N-[(5-methoxy-2-pyridyl)methyl]-1-(p-tolylsulfonyl) pyrrole-3-carboxamide]
19 | 2100 | 11 | COc1ccnc(CNC(=O)c2ccn(S(=O)(=O)c3ccc(C)cc3)c2)c1 [Compound 19, N-[(4-methoxy-2-pyridyl)methyl]-1-(p-tolylsulfonyl) pyrrole-3-carboxamide]
20 | 3200 | 24 | Cc1ccc(S(=O)(=O)n2ccc(C(=O)NCc3cnc4nccn4c3)c2)cc1 [Compound 24, N-(imidazo[1,2-a]pyrimidin-6-ylmethyl)-1-(p-tolylsulfonyl)pyrrole-3-carboxamide]
21 | 1100 | 37 | Cc1ccc(S(=O)(=O)n2ccc(C(=O)NCc3cnc(C)cn3)c2)cc1 [Compound 25, N-[(5-methylpyrazin-2-yl)methyl]-1-(p-tolylsulfonyl) pyrrole-3-carboxamide]
22 | 930 | 22 | Cc1ccc(S(=O)(=O)n2ccc(C(=O)NCc3ccc(C)nc3)c2)cc1 [Compound 26, N-[(6-methyl-3-pyridyl)methyl]-1-(p-tolylsulfonyl)pyrrole-3-carboxamide]
23 | 1500 | 27 | Cc1cnc(CNC(=O)c2ccn(S(=O)(=O)c3ccccc3C)c2)cn1 [Compound 28, N-[(5-methylpyrazin-2-yl)methyl]-1-(o-tolylsulfonyl) pyrrole-3-carboxamide]
24 | 1300 | 31 | Cc1ccc(S(=O)(=O)n2ccc(C(=O)NCc3cnccn3)c2)cc1 [Compound 29, 1-(p-tolylsulfonyl)-N-(pyrazin-2-ylmethyl) pyrrole-3-carboxamide]
25 | 2500 | 17 | Cc1cccc(S(=O)(=O)n2ccc(C(=O)NCc3cnc(C)cn3)c2)c1 [Compound 30, N-[(5-methylpyrazin-2-yl)methyl]-1-(m-tolylsulfonyl)pyrrole-3-carboxamide]
26 | 9600 | 13 | Cc1ccc(S(=O)(=O)n2ccc(C(=O)NCc3nnc(C)o3)c2)cc1 [Compound 31, N-[(5-methyl-1,3,4-oxadiazol-2-yl)methyl]-1-(p-tolylsulfonyl)pyrrole-3-carboxamide]
27 | 1300 | 16 | Cc1ccc(S(=O)(=O)n2ccc(C(=O)NCc3cc(C)on3)c2)cc1 [Compound 32, N-[(5-methylisoxazol-3-yl)methyl]-1-(p-tolylsulfonyl) pyrrole-3-carboxamide]
